Measured values published in article PMC8537445, “D-Peptide-Based Probe for CXCR4-Targeted Molecular Imaging and Radionuclide Therapy” (Pharmaceutics, 2021).
Positions of bridges follow the written chain, without caps; N, C: chain ends. Non-standard residues stand in square brackets, D forms with d. Residues, ends and D or L forms follow the SMILES beside them. Chains are numbered I, II in the order given. *: point of attachment. NOTA = O=C(O)CN1CCN(CC(=O)O)CCN(CC(=O)*)CC1

Tests used:
[1] = PET/CT imaging in wild-type mice; assay type: in vivo, mouse; details: dynamic PET 0–60 min p.i., AMD3100 5 mg/kg
Description: Dynamic PET images were acquired for 60 min immediately after intravenous injection using a beta-cube PET scanner (Molecubes, Gent, Belgium). The mice were kept under gas anesthesia during the entire procedure (2.5% isoflurane in O2 at 1 L/min flow rate), with temperature and respiration monitored throughout. After PET scanning, a CT image was acquired for anatomic coregistration with an X-cube CT scanner (Molecubes, Gent, Belgium), using the ‘general’ protocol with the following parameters: 50 kVp, 480 exposures, 85 ms/projection, 100 μA tube current, rotation time 60 s. After scanning, mice were sacrificed 75 min p.i. and a whole-body biodistribution study was performed.
PET data were histogrammed into 14 frames (4 × 15 s, 4 × 1 min, 1 × 5 min, 5 × 10 min) and reconstructed into a 192 × 192 image matrix with 0.4 mm voxels using 30 iterations the native MLEM algorithm with corrections for randoms, scatter, attenuation and decay. CT Data were reconstructed using a regularized statistical (iterative) image reconstruction algorithm using non-negative least squares, using an isotropic 200 μm voxel size and scaled to Hounsfield Units (HUs) after calibration against a standard air/water phantom. […] Radiotracer uptake at 60 min, expressed as SUVmean, was the outcome measure.

[2] = Ex vivo biodistribution in wild-type mice; details: mouse, total radioactivity, 75 min p.i., ex vivo gamma counting, mean ± SD
Description: The in vivo pharmacokinetics of the selected radioligands were first evaluated in wild-type mice by performing a whole-body biodistribution study. […] Blood and major organs were collected in tared tubes and weighed. Quantification of radioactivity in blood, organs, and other body parts was performed using an automated gamma counter equipped with a 3-inch NaI(Tl) well crystal coupled to a multichannel analyzer, mounted in a sample changer (2480 Wizard^2, Perkin Elmer, Waltham, MA, USA). Counts were corrected for background radiation, physical decay and counter dead time. Results are presented as standardized uptake values (SUV; tissue activity concentration (MBq/g)/[injected dose (MBq)/body weight (g)]).

[3] = In vivo radiometabolite analysis in plasma and urine; set-up: species or system mouse; details: wild-type mice
Description: Plasma samples were obtained by decapitation 15 min p.i. (n = 2). Blood was collected in EDTA tubes and centrifuged for 5 min at 3000× g. Subsequently, plasma was removed and diluted (1:2) with acetonitrile to precipitate all plasma proteins. After centrifugation (5 min at 3000× g), the supernatant was diluted (1:10) with water and filtered (0.22 µm) before injection on radioHPLC. Urine samples were collected 75 min p.i. (n = 3) by gently pressing on the bladder. The collected urine was filtered (0.22 µm) before injection on radioHPLC. Due to low radioactivity concentration in the plasma samples, 30 fractions of 30 s per plasma sample were collected. Radioactivity in the fractions was determined in an automated gamma counter.

[4] = Ex vivo biodistribution in U87.hCXCR4 tumor-bearing mice; set-up: species or system mouse; details: female, SCID (CB17.Cg-Prkdc<scid>Lyst<bg-J>/Crl), mouse, iv, total radioactivity, 75 min p.i., mean ± SD

For `CC(C)C[C@@H](N)C(=O)NCC(=O)N[C@H](C)C(=O)N[C@H](CO)C(=O)N[C@H](Cc1c[nH]c2ccccc12)C(=O)N[C@H](Cc1c[nH]cn1)C(=O)N[C@H](CCCNC(=N)N)C(=O)N1CCC[C@@H]1C(=O)N[C@H](CC(=O)O)C(=O)N[C@H](CCCCNC(=O)CN1CCN(CC(=O)O)CCN(CC(=O)O)CC1)C(=O)NCCCC[C@@H](NC(=O)[C@H]1CCCN1C(=O)[C@@H](CC(C)C)NC(=O)[C@H]1CCCN1C(=O)[C@@H](CCCNC(=N)N)NC(=O)[C@@H](CCCCN)NC(=O)[C@@H](CCC(N)=O)NC(=O)[C@@H](Cc1ccc(O)cc1)NC(=O)CNC(=O)[C@@H](CC(C)C)NC(=O)[C@@H](CS)NC(=O)[C@@H](CS)NC(=O)[C@@H](CCCCN)NC(=O)[C@@H](CC(=O)O)NC(=O)[C@H]1CCCN1C(=O)[C@@H](CCCNC(=N)N)NC(=O)[C@@H](Cc1c[nH]cn1)NC(=O)[C@@H](Cc1c[nH]c2ccccc12)NC(=O)[C@@H](CO)NC(=O)[C@@H](C)NC(=O)CNC(=O)[C@H](N)CC(C)C)C(=O)O` [[^18F]AlF-NOTA-DV1-k-(DV3)] (I: H-[dL]G[dA][dS][dW][dH][dR][dP][dD][dK][dC][dC][dL]G[dY][dQ][dK][dR][dP][dL][dP][dK]-OH / II: H-[dL]G[dA][dS][dW][dH][dR][dP][dD][dK](NOTA); amide I:22-II:C), the “kidney uptake on co-injection of AMD3100” value [1] was “increased with a factor of two”, the “liver retention on co-injection of AMD3100” value [1] was “completely blocked” and the SUV at 1.25 h ([2]; blood, + AMD3100 5 mg/kg, n: PentixaFor 1, 18F 2, 68Ga 4, 177Lu 3, read-out: blood uptake) was 0.5 SUV. For the same compound, the SUV at 1.25 h ([2]; blood, tracer alone, n: PentixaFor 3, 18F 5, 68Ga 4, 177Lu 3, read-out: blood uptake) was 0.2 ± 0.1 SUV, the SUV at 1.25 h ([2]; bone (femur harboring bone marrow), tracer alone, n: PentixaFor 3, 18F 5, 68Ga 4, 177Lu 3, read-out: bone uptake (femur harboring bone marrow)) was 0.7 ± 0.4 SUV and the SUV at 1.25 h ([2]; brain, + AMD3100 5 mg/kg, n: PentixaFor 1, 18F 2, 68Ga 4, 177Lu 3, read-out: brain uptake) was 0.02 SUV. It also gave an SUV at 1.25 h ([2]; brain, tracer alone, n: PentixaFor 3, 18F 5, 68Ga 4, 177Lu 3, read-out: brain uptake) of 0.01 ± 0.003 SUV, an SUV at 1.25 h ([2]; heart, + AMD3100 5 mg/kg, n: PentixaFor 1, 18F 2, 68Ga 4, 177Lu 3, read-out: heart uptake) of 0.2 SUV and an SUV at 1.25 h ([2]; heart, tracer alone, n: PentixaFor 3, 18F 5, 68Ga 4, 177Lu 3, read-out: heart uptake) of 0.2 ± 0.1 SUV. For the same compound, the SUV at 1.25 h ([2]; kidneys, + AMD3100 5 mg/kg, n: PentixaFor 1, 18F 2, 68Ga 4, 177Lu 3, read-out: kidneys uptake) was 35.4 SUV, the SUV at 1.25 h ([2]; kidneys, tracer alone, n: PentixaFor 3, 18F 5, 68Ga 4, 177Lu 3, read-out: kidneys uptake) was 23.2 ± 3.9 SUV and the SUV at 1.25 h ([2]; liver, + AMD3100 5 mg/kg, n: PentixaFor 1, 18F 2, 68Ga 4, 177Lu 3, read-out: liver uptake) was 1 SUV. It also gave an SUV at 1.25 h ([2]; liver, tracer alone, n: PentixaFor 3, 18F 5, 68Ga 4, 177Lu 3, read-out: liver uptake) of 7.4 ± 0.5 SUV, an SUV at 1.25 h ([2]; lungs, + AMD3100 5 mg/kg, n: PentixaFor 1, 18F 2, 68Ga 4, 177Lu 3, read-out: lungs uptake) of 0.8 SUV and an SUV at 1.25 h ([2]; lungs, tracer alone, n: PentixaFor 3, 18F 5, 68Ga 4, 177Lu 3, read-out: lungs uptake) of 0.8 ± 0.2 SUV. For the same compound, the SUV at 1.25 h ([2]; pancreas, + AMD3100 5 mg/kg, n: PentixaFor 1, 18F 2, 68Ga 4, 177Lu 3, read-out: pancreas uptake) was 0.1 SUV, the SUV at 1.25 h ([2]; pancreas, tracer alone, n: PentixaFor 3, 18F 5, 68Ga 4, 177Lu 3, read-out: pancreas uptake) was 0.1 ± 0.02 SUV and the SUV at 1.25 h ([2]; spleen, + AMD3100 5 mg/kg, n: PentixaFor 1, 18F 2, 68Ga 4, 177Lu 3, read-out: spleen uptake) was 0.9 SUV. For the same compound, the SUV at 1.25 h ([2]; spleen, tracer alone, n: PentixaFor 3, 18F 5, 68Ga 4, 177Lu 3, read-out: spleen uptake) was 3.2 ± 0.8 SUV, the “parent (intact) radioligand in plasma” value ([3]; i.v., plasma 15 min p.i., radioHPLC fractions, gamma counter, n = 2) was 86 ± 0.1% and the “parent (intact) radioligand in urine” value ([3]; i.v., urine 75 min p.i., radioHPLC, n = 3) was 37 ± 2%. For the same compound, the “polar metabolites in plasma” value ([3]; plasma 15 min p.i., n = 2) was 14 ± 0.1%, the “polar metabolites in urine” value ([3]; urine 75 min p.i., n = 3) was 63 ± 2% and the SUV at 1.25 h ([4]; blood, co-injected DV1-k-(DV3) 7 nmol, n = 3, read-out: blood uptake) was 0.4 ± 0.2 SUV. For the same compound, the SUV at 1.25 h ([4]; blood, co-injected DV1-k-(DV3) 14 nmol, n = 4, read-out: blood uptake) was 0.5 ± 0.3 SUV, the SUV at 1.25 h ([4]; blood, tracer alone (0 nmol), n = 4, read-out: blood uptake) was 0.1 ± 0.1 SUV and the SUV at 1.25 h ([4]; blood, with AMD3100 5 mg/kg (157 nmol), co-injected, co-injected AMD3100 5 mg/kg (157 nmol), n = 4, read-out: blood uptake) was 0.3 ± 0.2 SUV. It also gave an SUV at 1.25 h ([4]; bone, co-injected AMD3100 5 mg/kg (157 nmol), n = 4, read-out: bone uptake) of 0.1 ± 0.04 SUV, an SUV at 1.25 h ([4]; bone, co-injected DV1-k-(DV3) 7 nmol, n = 3, read-out: bone uptake) of 0.2 ± 0.04 SUV and an SUV at 1.25 h ([4]; bone, co-injected DV1-k-(DV3) 14 nmol, n = 4, read-out: bone uptake) of 0.3 ± 0.1 SUV. The SUV at 1.25 h ([4]; bone, co-injected DV1-k-(DV3) 24 nmol, n = 4, read-out: bone uptake) was 0.2 ± 0.04 SUV, the SUV at 1.25 h ([4]; bone, tracer alone (0 nmol), n = 4, read-out: bone uptake) was 0.4 ± 0.1 SUV and the SUV at 1.25 h ([4]; brain, co-injected AMD3100 5 mg/kg (157 nmol), n = 4, read-out: brain uptake) was 0.01 ± 0.004 SUV. For the same compound, the SUV at 1.25 h ([4]; brain, co-injected DV1-k-(DV3) 7 nmol, n = 3, read-out: brain uptake) was 0.02 ± 0.01 SUV, the SUV at 1.25 h ([4]; brain, co-injected DV1-k-(DV3) 14 nmol, n = 4, read-out: brain uptake) was 0.03 ± 0.01 SUV and the SUV at 1.25 h ([4]; brain, co-injected DV1-k-(DV3) 24 nmol, n = 4, read-out: brain uptake) was 0.02 ± 0.01 SUV. For the same compound, the SUV at 1.25 h ([4]; brain, tracer alone (0 nmol), n = 4, read-out: brain uptake) was 0.01 ± 0.001 SUV, the SUV at 1.25 h ([4]; heart, co-injected AMD3100 5 mg/kg (157 nmol), n = 4, read-out: heart uptake) was 0.1 ± 0.1 SUV and the SUV at 1.25 h ([4]; heart, co-injected DV1-k-(DV3) 7 nmol, n = 3, read-out: heart uptake) was 0.2 ± 0.1 SUV. The SUV at 1.25 h ([4]; heart, co-injected DV1-k-(DV3) 14 nmol, n = 4, read-out: heart uptake) was 0.3 ± 0.1 SUV, the SUV at 1.25 h ([4]; heart, co-injected DV1-k-(DV3) 24 nmol, n = 4, read-out: heart uptake) was 0.2 ± 0.1 SUV and the SUV at 1.25 h ([4]; heart, tracer alone (0 nmol), n = 4, read-out: heart uptake) was 0.1 ± 0.04 SUV. The SUV at 1.25 h ([4]; kidneys, co-injected AMD3100 5 mg/kg (157 nmol), n = 4, read-out: kidneys uptake) was 47.5 ± 3.1 SUV, the SUV at 1.25 h ([4]; kidneys, co-injected DV1-k-(DV3) 7 nmol, n = 3, read-out: kidneys uptake) was 39.2 ± 7.6 SUV and the SUV at 1.25 h ([4]; kidneys, co-injected DV1-k-(DV3) 14 nmol, n = 4, read-out: kidneys uptake) was 33.6 ± 12.4 SUV. The SUV at 1.25 h ([4]; kidneys, co-injected DV1-k-(DV3) 24 nmol, n = 4, read-out: kidneys uptake) was 36.1 ± 5.9 SUV, the SUV at 1.25 h ([4]; kidneys, tracer alone (0 nmol), n = 4, read-out: kidneys uptake) was 26.5 ± 6 SUV and the SUV at 1.25 h ([4]; liver, co-injected AMD3100 5 mg/kg (157 nmol), n = 4, read-out: liver uptake) was 0.9 ± 0.3 SUV. For the same compound, the SUV at 1.25 h ([4]; liver, tracer alone (0 nmol), n = 4, read-out: liver uptake) was 8.2 ± 1 SUV, the SUV at 1.25 h ([4]; liver, with unlabelled DV1-k-(DV3) 7 nmol, co-injected, co-injected DV1-k-(DV3) 7 nmol, n = 3, read-out: liver uptake) was 1.2 ± 0.1 SUV and the SUV at 1.25 h ([4]; liver, with unlabelled DV1-k-(DV3) 14 nmol, co-injected, co-injected DV1-k-(DV3) 14 nmol, n = 4, read-out: liver uptake) was 1.2 ± 0.4 SUV. For the same compound, the SUV at 1.25 h ([4]; liver, with unlabelled DV1-k-(DV3) 24 nmol, co-injected, co-injected DV1-k-(DV3) 24 nmol, n = 4, read-out: liver uptake) was 0.7 ± 0.1 SUV, the SUV at 1.25 h ([4]; lungs, co-injected AMD3100 5 mg/kg (157 nmol), n = 4, read-out: lungs uptake) was 0.5 ± 0.1 SUV and the SUV at 1.25 h ([4]; lungs, co-injected DV1-k-(DV3) 7 nmol, n = 3, read-out: lungs uptake) was 0.7 ± 0.2 SUV. It also gave an SUV at 1.25 h ([4]; lungs, co-injected DV1-k-(DV3) 14 nmol, n = 4, read-out: lungs uptake) of 0.9 ± 0.3 SUV, an SUV at 1.25 h ([4]; lungs, co-injected DV1-k-(DV3) 24 nmol, n = 4, read-out: lungs uptake) of 0.6 ± 0.2 SUV and an SUV at 1.25 h ([4]; lungs, tracer alone (0 nmol), n = 4, read-out: lungs uptake) of 0.6 ± 0.2 SUV. It also gave an SUV at 1.25 h ([4]; muscle, co-injected DV1-k-(DV3) 7 nmol, n = 3, read-out: muscle uptake) of 0.2 ± 0.1 SUV.
